Source: ChEMBL document CHEMBL1909538, “Iodine-catalyzed conjugate addition of indoles onto en-1,4-dione: a novel synthesis of 3-(1-(1H-indol-3-yl)-2-oxo-2-phenylethyl)indolin-2-ones as antibacterial and antifungal agents” (2011)
Values after ≈ are worked out from the molar mass of the structure shown.

Assays:
Aspergillus flavus [1] = assay: Antifungal activity against Aspergillus flavus at 150 ug after 48 hrs by agar well diffusion method; details: read-out: DIZ
Klebsiella pneumoniae = assay: Antimicrobial activity against Klebsiella pneumoniae MTCC 618 by broth dilution method; format: functional
Bacillus subtilis = assay: Antimicrobial activity against Bacillus subtilis MTCC 441 by broth dilution method; format: functional
Staphylococcus aureus = assay: Antimicrobial activity against Staphylococcus aureus MTCC 96 by broth dilution method; format: functional
Diutina rugosa [2] = assay: Antifungal activity against Candida rugosa at 100 ug after 48 hrs by agar well diffusion method; format: functional; details: read-out: DIZ
Saccharomyces cerevisiae [3] = assay: Antifungal activity against Saccharomyces cerevisiae MTCC 36 at 100 ug after 48 hrs by agar well diffusion method; format: functional; details: MTCC 36, 48 h, read-out: DIZ
[4] = test system: Staphylococcus epidermidis; assay: Antimicrobial activity against Staphylococcus epidermidis by broth dilution method; format: functional
Candida albicans [5] = assay: Antifungal activity against Candida albicans MTCC 227 at 150 ug after 48 hrs by agar well diffusion method; format: functional; details: MTCC 227, 48 h, read-out: DIZ
Candida albicans [6] = assay: Antifungal activity against Candida albicans MTCC 227 at 100 ug after 48 hrs by agar well diffusion method; format: functional; details: MTCC 227, 48 h, read-out: DIZ
Pseudomonas aeruginosa = assay: Antimicrobial activity against Pseudomonas aeruginosa MTCC 741 by broth dilution method; format: functional
Escherichia coli = assay: Antimicrobial activity against Escherichia coli MTCC 443 by broth dilution method; format: functional
Saccharomyces cerevisiae [7] = assay: Antifungal activity against Saccharomyces cerevisiae MTCC 36 at 150 ug after 48 hrs by agar well diffusion method; format: functional; details: MTCC 36, 48 h, read-out: DIZ
Aspergillus flavus [8] = assay: Antifungal activity against Aspergillus flavus at 100 ug after 48 hrs by agar well diffusion method; details: read-out: DIZ
Diutina rugosa [9] = assay: Antifungal activity against Candida rugosa at 150 ug after 48 hrs by agar well diffusion method; format: functional; details: read-out: DIZ
Candida albicans [10] = assay: Antifungal activity against Candida albicans MTCC 227 at 50 ug after 48 hrs by agar well diffusion method; format: functional; details: MTCC 227, 48 h, read-out: DIZ
Diutina rugosa [11] = assay: Antifungal activity against Candida rugosa at 50 ug after 48 hrs by agar well diffusion method; format: functional; details: read-out: DIZ
Aspergillus flavus [12] = assay: Antifungal activity against Aspergillus flavus at 50 ug after 48 hrs by agar well diffusion method; details: read-out: DIZ
Saccharomyces cerevisiae [13] = assay: Antifungal activity against Saccharomyces cerevisiae MTCC 36 at 50 ug after 48 hrs by agar well diffusion method; format: functional; details: MTCC 36, 48 h, read-out: DIZ

SMILES | zone of inhibition at 150 µg/disc (Aspergillus flavus [1]) | MIC (Klebsiella pneumoniae) | MIC (Bacillus subtilis) | MIC (Staphylococcus aureus) | zone of inhibition at 100 µg/disc (Diutina rugosa [2]) | zone of inhibition at 100 µg/disc (Saccharomyces cerevisiae [3]) | MIC [4] | zone of inhibition at 150 µg/disc (Candida albicans [5]) | zone of inhibition at 100 µg/disc (Candida albicans [6]) | MIC (Pseudomonas aeruginosa) | MIC (Escherichia coli) | zone of inhibition at 150 µg/disc (Saccharomyces cerevisiae [7]) | zone of inhibition at 100 µg/disc (Aspergillus flavus [8]) | zone of inhibition at 150 µg/disc (Diutina rugosa [9]) | zone of inhibition at 50 µg/disc (Candida albicans [10]) | zone of inhibition at 50 µg/disc (Diutina rugosa [11]) | zone of inhibition at 50 µg/disc (Aspergillus flavus [12]) | zone of inhibition at 50 µg/disc (Saccharomyces cerevisiae [13])
O=C1Nc2ccccc2C1C(C(=O)c1ccccc1)c1c[nH]c2ccc(Cl)cc12 (stereo unspecified) | 0 mm | 150 µg/mL (≈ 374 µM) | 150 µg/mL (≈ 374 µM) | 18.8 µg/mL (≈ 46.8 µM) | 13 mm | 0 mm | 75 µg/mL (≈ 187 µM) | 0 mm | 0 mm | 9.38 µg/mL (≈ 23.4 µM) | 150 µg/mL (≈ 374 µM) | 0 mm | 0 mm | 17 mm | – | – | – | –
O=C1Nc2ccccc2C1C(C(=O)c1ccccc1)c1c[nH]c2ccc([N+](=O)[O-])cc12 (stereo unspecified) | 0 mm | 150 µg/mL (≈ 365 µM) | 75 µg/mL (≈ 182 µM) | 150 µg/mL (≈ 365 µM) | 0 mm | 0 mm | 150 µg/mL (≈ 365 µM) | 0 mm | 0 mm | 9.38 µg/mL (≈ 22.8 µM) | 150 µg/mL (≈ 365 µM) | 0 mm | 0 mm | 0 mm | – | – | – | –
Cc1[nH]c2ccccc2c1C(C(=O)c1ccccc1)C1C(=O)Nc2ccccc21 (stereo unspecified) | 0 mm | 150 µg/mL (≈ 394 µM) | 150 µg/mL (≈ 394 µM) | 37.5 µg/mL (≈ 98.6 µM) | 9 mm | 0 mm | 150 µg/mL (≈ 394 µM) | 0 mm | 0 mm | 18.8 µg/mL (≈ 49.3 µM) | 150 µg/mL (≈ 394 µM) | 0 mm | 0 mm | 13 mm | – | – | – | –
Cc1[nH]c2ccc([N+](=O)[O-])cc2c1C(C(=O)c1ccccc1)C1C(=O)Nc2ccccc21 (stereo unspecified) | 0 mm | 150 µg/mL (≈ 353 µM) | 150 µg/mL (≈ 353 µM) | 150 µg/mL (≈ 353 µM) | 0 mm | 0 mm | 150 µg/mL (≈ 353 µM) | 0 mm | 0 mm | 150 µg/mL (≈ 353 µM) | 150 µg/mL (≈ 353 µM) | 0 mm | 0 mm | 0 mm | – | – | – | –
N#Cc1ccc2[nH]cc(C(C(=O)c3ccccc3)C3C(=O)Nc4ccccc43)c2c1 (stereo unspecified) | 0 mm | 150 µg/mL (≈ 383 µM) | 150 µg/mL (≈ 383 µM) | 150 µg/mL (≈ 383 µM) | 8 mm | 0 mm | 150 µg/mL (≈ 383 µM) | 0 mm | 0 mm | 150 µg/mL (≈ 383 µM) | 150 µg/mL (≈ 383 µM) | 0 mm | 0 mm | 11 mm | – | – | – | –
C[C@@H]1[C@H](O)[C@@H](C)/C=C/C=C/C=C/C=C/C=C/C=C/C=C/[C@H](O[C@@H]2O[C@H](C)[C@@H](O)[C@H](N)[C@@H]2O)C[C@@H]2O[C@](O)(C[C@@H](O)C[C@@H](O)[C@H](O)CC[C@@H](O)C[C@@H](O)CC(=O)O[C@H]1C)C[C@H](O)[C@H]2C(=O)O [AMPHOTERICIN B] | – | – | – | – | – | – | – | – | – | – | – | – | – | – | 23.5 mm | 21 mm | 25 mm | 22 mm
COC(=O)c1ccc2[nH]cc(C(C(=O)c3ccccc3)C3C(=O)Nc4ccccc43)c2c1 (stereo unspecified) | 0 mm | 150 µg/mL (≈ 353 µM) | 150 µg/mL (≈ 353 µM) | 75 µg/mL (≈ 177 µM) | 10 mm | 0 mm | 150 µg/mL (≈ 353 µM) | 0 mm | 0 mm | 18.8 µg/mL (≈ 44.2 µM) | 150 µg/mL (≈ 353 µM) | 0 mm | 0 mm | 15 mm | – | – | – | –
Cn1cc(C(C(=O)c2ccccc2)C2C(=O)Nc3ccccc32)c2ccccc21 (stereo unspecified) | 0 mm | 150 µg/mL (≈ 394 µM) | 150 µg/mL (≈ 394 µM) | 150 µg/mL (≈ 394 µM) | 10 mm | 0 mm | 150 µg/mL (≈ 394 µM) | 0 mm | 0 mm | 18.8 µg/mL (≈ 49.3 µM) | 150 µg/mL (≈ 394 µM) | 0 mm | 0 mm | 16 mm | – | – | – | –
O=C1Nc2ccccc2C1C(C(=O)c1ccccc1)c1c[nH]c2ccccc12 (stereo unspecified) | 0 mm | 150 µg/mL (≈ 409 µM) | 75 µg/mL (≈ 205 µM) | 75 µg/mL (≈ 205 µM) | 11 mm | 0 mm | 150 µg/mL (≈ 409 µM) | 0 mm | 0 mm | 9.38 µg/mL (≈ 25.6 µM) | 150 µg/mL (≈ 409 µM) | 0 mm | 0 mm | 16 mm | – | – | – | –
O=C1Nc2ccccc2C1C(C(=O)c1ccccc1)c1c[nH]c2ccc(Br)cc12 (stereo unspecified) | 0 mm | 150 µg/mL (≈ 337 µM) | 150 µg/mL (≈ 337 µM) | 150 µg/mL (≈ 337 µM) | 0 mm | 0 mm | 150 µg/mL (≈ 337 µM) | 0 mm | 0 mm | 18.8 µg/mL (≈ 42.1 µM) | 150 µg/mL (≈ 337 µM) | 0 mm | 0 mm | 15 mm | – | – | – | –
CN[C@@H]1[C@H](O[C@H]2[C@H](O[C@H]3[C@H](O)[C@@H](O)[C@H](N=C(N)N)[C@@H](O)[C@@H]3N=C(N)N)O[C@@H](C)[C@]2(O)C=O)O[C@@H](CO)[C@H](O)[C@H]1O [STREPTOMYCIN] | – | 3.12 µg/mL (≈ 5.37 µM) | 6.25 µg/mL (≈ 10.7 µM) | 6.25 µg/mL (≈ 10.7 µM) | – | – | 3.12 µg/mL (≈ 5.37 µM) | – | – | 1.56 µg/mL (≈ 2.69 µM) | 6.25 µg/mL (≈ 10.7 µM) | – | – | – | – | – | – | –
O=C1Nc2ccccc2C1C(C(=O)c1ccccc1)c1c(-c2ccccc2)[nH]c2ccccc12 (stereo unspecified) | 0 mm | 150 µg/mL (≈ 339 µM) | 150 µg/mL (≈ 339 µM) | 75 µg/mL (≈ 169 µM) | 12 mm | 0 mm | 75 µg/mL (≈ 169 µM) | 0 mm | 0 mm | 9.38 µg/mL (≈ 21.2 µM) | 150 µg/mL (≈ 339 µM) | 0 mm | 0 mm | 17 mm | – | – | – | –
CC1(C)S[C@@H]2[C@H](NC(=O)Cc3ccccc3)C(=O)N2[C@H]1C(=O)O [PENICILLIN G] | – | 6.25 µg/mL (≈ 18.7 µM) | 1.56 µg/mL (≈ 4.67 µM) | 1.56 µg/mL (≈ 4.67 µM) | – | – | 3.12 µg/mL (≈ 9.35 µM) | – | – | 12.5 µg/mL (≈ 37.4 µM) | 12.5 µg/mL (≈ 37.4 µM) | – | – | – | – | – | – | –
